One assay addresses peptide P2. Put plainly: Apparent KD of lead quencher dyes with peptide P2 (quenching of pyrene fluorescence). Type of assay: binding. The conditions noted are these: with 5 μM pyrene-labeled peptide P2, 100 mM Tris HCl pH 7.5, inner filter corrected. Here is the method:
KD values were acquired for the set of the ten lead quenchers with peptide P2, in order to obtain a target range for the quencher:peptide ratios to be employed in the subsequent assays (vide infra). These apparent KD values were determined using the quenching of pyrene fluorescence as a barometer of peptide/quencher complex stability. […] An inner filter effect (at high dye concentrations) was corrected as previously described (Levine (1977) Clin. Chem. 23:2292-301).

In a further assay the target is peptide P5. Nature of the assay: Apparent KD of lead quencher/peptide pair, peptide P5. Format: binding.
Assay [1] concerns the target phosphorylated P5 peptide. Nature of the assay: Apparent KD of quencher with phosphorylated P5 peptide. Format: binding.
Method: (§1) Varying concentrations of 10 dyes (FIG. 2 Panel B), ranging from 0.5-500 μM, were added to 5 μM pyrene-labeled P2 peptide in 100 mM Tris HCl pH 7.5 buffer (96 well plates). […] After correcting for the inner filter effect, the percentage of quench was plotted against the concentration of the dye. A nonlinear regression analysis fit of the data to the rectangular hyperbola model using the Sigma Plot version 8.02 software was used to obtain apparent KD values.
The target of assay [2] is T1, PKA (Mus musculus, UniProt P05132). Nature of the assay: Control: phosphorylation-induced fluorescence change of pyrene peptides without quenching dye, with 14-3-3τ. Format: biochemical, murine. Also on record: made in house. The conditions noted are these: absence of quenching dye, ATP, 5 μM peptide.
The target of assay [3] is T1, PKA. Put plainly: Fluorescence increase of covalently quenched peptides P13, P14 upon phosphorylation by PKA. The note with it: for change in fluorescence upon phosphorylation by PKA: in the absence of 14-3-3. Format: biochemical. As to the method:
Pyrene-substituted peptides P13 (FIG. 15 Panel A, SEQ ID NO:21) and P14 (FIG. 15 Panel B, SEQ ID NO:22) were synthesized. […] The assay was performed with a total volume of 200 μL and was initiated with the addition of PKA enzyme. […]

A further assay has as its target peptide P9. Nature of the assay: Apparent KD of lead quencher/peptide pair, peptide P9. The note with it: read-out: Apparent KD; with peptide P9.

Square brackets hold non-standard residues; d marks the D form. Peptide text beside a SMILES is read from it. * marks the point of attachment. Acetyl(1-pyrenyl) = O=C(Cc1ccc2ccc3cccc4ccc1c2c34)*; Carminic acid = quencher bound covalently; Ala(Pyr) = not defined here; Dap = NC[C@H](N)C(=O)O

The results in this text go back to patent US20080318246A1, “Deeply quenched enzyme sensors” (The Albert Einstein College of Medicine of Yeshiva …, priority 2007, published 2008).

Method for peptide P5: as §1
Method for peptide P9: as §1

For the molecule `Cc1cc(-c2ccc(/N=N/c3ccc4c(S(=O)(=O)O)cc(S(=O)(=O)O)c(N)c4c3O)c(C)c2)ccc1/N=N/c1ccc2c(S(=O)(=O)O)cc(S(=O)(=O)O)c(N)c2c1O` [D3, Evans Blue], the Kd at peptide P2 came to 2.8 ± 0.8 µM.
Turning to `Nc1c(S(=O)(=O)O)cc(Nc2ccc(Nc3nc(Cl)nc(Nc4cccc(S(=O)(=O)O)c4)n3)c(S(=O)(=O)O)c2)c2c1C(=O)c1ccccc1C2=O` [D6, Reactive Blue 2], on peptide P2, the Kd amounted to 19.6 ± 3.4 µM.
As to `O=[N+]([O-])c1ccc2c(N=Nc3ccc4ccccc4c3O)c(O)cc(S(=O)(=O)[O-])c2c1.[Na+]` [D18, Eriochrome Black T], the Kd at peptide P2 came out at 14.3 ± 3.3 µM.
The same measure, in the same setting: as for `Nc1ccc(N=Nc2ccc(-c3ccc(N=Nc4c(S(=O)(=O)[O-])cc5cc(S(=O)(=O)[O-])c(N=Nc6ccccc6)c(O)c5c4N)cc3)cc2)c(N)c1.[Na+].[Na+]` [D34, Chlorazol Black E], the figure is 7.7 ± 1.5 µM; as for `O=S(=O)([O-])c1ccc(N=Nc2ccc(N=Nc3c(O)c(S(=O)(=O)[O-])cc4cc(S(=O)(=O)[O-])ccc34)c(S(=O)(=O)[O-])c2)cc1.[Na+].[Na+].[Na+].[Na+]` [D42, Ponceau S], 11.2 ± 2.7 µM.
With `O=C([O-])c1c(Cl)c(Cl)c(Cl)c(Cl)c1-c1c2cc(I)c(=O)c(I)c-2oc2c(I)c([O-])c(I)cc12.[Na+].[Na+]` [D43, Rose Bengal], the Kd amounted to 0.4 ± 0.03 µM at peptide P5 (with peptide P5), 0.4 ± 0.03 µM at peptide P5 (with unphosphorylated P5 peptide), 0.21 ± 0.04 µM in assay [1] and 7.5 ± 1.6 µM at peptide P2.
`O=C(O)c1nn(-c2ccc(S(=O)(=O)O)cc2)c(O)c1N=Nc1ccc(S(=O)(=O)O)cc1` [D47, Tartrazine]: the Kd at peptide P2 turned out to be 15 ± 2.1 µM.
Same read-out and setting: the result for `Cc1cc(-c2ccc(/N=N/c3c(S(=O)(=O)O)cc4cc(S(=O)(=O)O)cc(N)c4c3O)c(C)c2)ccc1/N=N/c1c(S(=O)(=O)O)cc2cc(S(=O)(=O)O)cc(N)c2c1O` [D48, Trypan Blue] reads 11.9 ± 3.6 µM.
For `CC(=O)NCC(=O)N[C@@H](CCCNC(=N)N)C(=O)N[C@H](C(=O)NCC(=O)N[C@@H](CCCNC(=N)N)C(=O)N[C@@H](CCCNC(=N)N)C(=O)N[C@@H](CNC(=O)Cc1ccc2ccc3cccc4ccc1c2c34)C(=O)N[C@@H](CO)C(=O)N[C@@H](Cc1ccc(O)cc1)C(=O)N1CCC[C@H]1C(N)=O)[C@@H](C)O` [P2, Ac-GRTGRRDap(Pyr)SYP-amide] (Ac-GRTGRR[Dap](Acetyl(1-pyrenyl))SYP-NH2), the “% Fluorescence Enhancement” value at PKA [2] is listed as 51%.
Same read-out and setting: as for `C[C@@H](O)[C@H](NC(=O)[C@H](CCCNC(=N)N)NC(=O)CNC(=O)CCCCCNC(=O)Cc1ccc2ccc3cccc4ccc1c2c34)C(=O)NCC(=O)N[C@@H](CCCNC(=N)N)C(=O)N[C@@H](CCCNC(=N)N)C(=O)N[C@@H](Cc1ccccc1)C(=O)N[C@@H](CO)C(=O)N[C@@H](Cc1ccc(O)cc1)C(=O)N1CCC[C@H]1C(N)=O` [P9], the figure is 48%.
Still for that read-out and setting: the result for Ac-GRDap(Pyr)GRRFSYP-amide [P4] reads 40%; that for Ac-GRTDap(Pyr)RRFSYP-amide [P3], 19%.
Turning to Ac-GRTGRRFSDap(Pyr)P-amide [P1], the “% Fluorescence Enhancement” value at PKA [2] was found to be 0%.
As for “AcGAla(Pyr)TGRRDap(Carminic acid)SLPA-amide (Ac-G[Ala(Pyr)]TGRR[Dap](Carminic acid)SLPA-NH2; reading uncertain) [P14]”, the “change in fluorescence upon phosphorylation by PKA” value with PKA [3] is on record as “No significant change in fluorescence”.
Turning to “AcGAla(Pyr)TGRRDap(Reactive Blue 2)SLPA-amide [P13]”, on PKA [3], the “change in fluorescence upon phosphorylation by PKA” value is “No significant change in fluorescence”. In addition, the “increase in fluorescence upon phosphorylation by PKA” value at PKA [3] (in the presence of 14-3-3τ (2.1 μM)) is given as 1.5-2.3 fold.
For Aniline Blue WS [D27], the Kd on peptide P9 came out at 0.6 ± 0.03 µM; on peptide P2 it was 18.1 ± 2.6 µM.
